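Values below derive from 48-hour exposures of cells grown in 96-well plates, with endpoints linearly interpolated between the two concentrations bracketing the appropriate inhibition level. GI50 marks 50% less growth. At the TGI there is no net growth.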
Key:
Assay in all cases: NCI anticancer screen, dose series, 48 h
[1] = system: CAKI-1 renal
[2] = system: SN12C renal
[3] = system: U251 CNS
[4] = system: IGROV1 ovarian
[5] = system: MALME-3M melanoma
[6] = system: MDA-N
[7] = system: T-47D breast
[8] = system: SK-MEL-2 melanoma
[9] = system: ACHN renal
[10] = system: HS 578T breast
[11] = system: NCI/ADR-RES ovarian
[12] = system: UACC-62 melanoma
[13] = system: SK-MEL-28 melanoma
[14] = system: CCRF-CEM leukemia
[15] = system: A498 renal
[16] = system: M14 melanoma
[17] = system: TK-10 renal
[18] = system: MDA-MB-435
[19] = system: NCI-H460 lung
[20] = system: HCT-116 colon
[21] = system: NCI-H23 lung
[22] = system: NCI-H522 lung
[23] = system: HL-60(TB) leukemia
[24] = system: EKVX NSCLC
[25] = system: SK-MEL-5 melanoma
[26] = system: UO-31 renal
[27] = system: LOX IMVI melanoma
[28] = system: HCT-15 colon
[29] = system: SF-539 CNS
[30] = system: RPMI-8226 leukemia
[31] = system: HT29 colon
[32] = system: SW-620 colon
[33] = system: SNB-75 CNS
[34] = system: COLO 205 colon
[35] = system: K-562 leukemia
[36] = system: PC-3 prostate
[37] = system: SR leukemia
[38] = system: KM12 colon
[39] = system: HOP-92 NSCLC
[40] = system: OVCAR-5 ovarian
[41] = system: SNB-19 CNS
[42] = system: A549 NSCLC
[43] = system: SF-268 CNS
[44] = system: OVCAR-8 ovarian
[45] = system: RXF 393 renal
[46] = system: NCI-H226 lung
[47] = system: UACC-257 melanoma
[48] = system: DU-145 prostate
[49] = system: MDA-MB-231 breast
[50] = system: MCF7 breast
[51] = system: SF-295 CNS
[52] = system: MOLT-4 leukemia
[53] = system: SK-OV-3 ovarian
[54] = system: OVCAR-4 ovarian
[55] = system: HOP-62 NSCLC
[56] = system: HCC-2998 colon
[57] = system: OVCAR-3 ovarian
[58] = system: 786-0 renal

N=C1N(c2ccccc2)C(=S)C(=Nc2ccccc2)N1c1ccccc1
TGI [1]: 27.7 µM
TGI [2]: 27.8 µM
TGI [3]: 27.3 µM
TGI [4]: 25.9 µM
TGI [5]: 26.6 µM
TGI [6]: 6.1 µM
TGI [7]: 9.21 µM
TGI [8]: 12.4 µM
TGI [9]: 20.6 µM
TGI [10]: 47.4 µM
TGI [11]: 38.6 µM
TGI [12]: 13.5 µM
TGI [13]: 31.7 µM
TGI [14]: > 20.7 µM
TGI [15]: 31.8 µM
TGI [16]: 23.6 µM
TGI [17]: 28.2 µM
TGI [18]: 3.94 µM
TGI [19]: 31 µM
TGI [20]: 7.26 µM
TGI [21]: 18 µM
TGI [22]: 7.72 µM
TGI [23]: 10.9 µM
TGI [24]: 53.1 µM
TGI [25]: 6.21 µM
TGI [26]: 16.7 µM
TGI [27]: 5.14 µM
TGI [28]: 21.9 µM
TGI [29]: 24.9 µM
TGI [30]: 13.9 µM
TGI [31]: 18.3 µM
TGI [32]: 13 µM
TGI [33]: 29.4 µM
TGI [34]: 12.1 µM
TGI [35]: 9.59 µM
TGI [36]: 24.8 µM
TGI [37]: > 48.4 µM
TGI [38]: 27.2 µM
TGI [39]: 22.9 µM
TGI [40]: 32.1 µM
TGI [41]: 30.4 µM
TGI [42]: 42.1 µM
TGI [43]: 29.7 µM
TGI [44]: 16.7 µM
TGI [45]: 25 µM
TGI [46]: 36.3 µM
TGI [47]: 7.52 µM
TGI [48]: 31.2 µM
TGI [49]: 20.9 µM
TGI [50]: 3.46 µM
TGI [51]: 30.5 µM
TGI [52]: 7.55 µM
TGI [53]: 33 µM
TGI [54]: 26.8 µM
TGI [55]: 34.1 µM
TGI [56]: 30.7 µM
TGI [57]: 9.55 µM
TGI [58]: 22.2 µM

CCCn1c2c(c3ccccc3c1=O)C(=O)c1cc3c(cc1-2)OCO3
GI50 [1]: 97.3 µM
TGI [1]: > 100 µM
GI50 [2]: > 100 µM
TGI [2]: > 100 µM
GI50 [3]: > 100 µM
TGI [3]: > 100 µM
GI50 [4]: 44.4 µM
TGI [4]: > 100 µM
GI50 [5]: > 100 µM
TGI [5]: > 100 µM
GI50 [6]: > 100 µM
TGI [6]: > 100 µM
GI50 [7]: > 100 µM
TGI [7]: > 100 µM
GI50 [8]: > 100 µM
TGI [8]: > 100 µM
GI50 [9]: > 100 µM
TGI [9]: > 100 µM
GI50 [10]: > 100 µM
TGI [10]: > 100 µM
GI50 [11]: 76.9 µM
TGI [11]: > 100 µM
GI50 [12]: > 100 µM
TGI [12]: > 100 µM
GI50 [13]: > 100 µM
TGI [13]: > 100 µM
GI50 [14]: > 100 µM
TGI [14]: > 100 µM
GI50 [15]: > 100 µM
TGI [15]: > 100 µM
GI50 [16]: > 100 µM
TGI [16]: > 100 µM
GI50 [17]: 86.9 µM
TGI [17]: > 100 µM
GI50 [18]: > 100 µM
TGI [18]: > 100 µM
GI50 [19]: 26.8 µM
TGI [19]: > 100 µM
GI50 [20]: 30.5 µM
TGI [20]: > 100 µM
GI50 [21]: > 100 µM
TGI [21]: > 100 µM
GI50 [22]: 60.1 µM
TGI [22]: > 100 µM
GI50 [23]: > 100 µM
TGI [23]: > 100 µM
GI50 [24]: 91.2 µM
TGI [24]: > 100 µM
GI50 [25]: > 100 µM
TGI [25]: > 100 µM
GI50 [26]: > 100 µM
TGI [26]: > 100 µM
GI50 [27]: > 100 µM
TGI [27]: > 100 µM
GI50 [28]: > 100 µM
TGI [28]: > 100 µM
GI50 [29]: > 100 µM
TGI [29]: > 100 µM
GI50 [31]: > 100 µM
TGI [31]: > 100 µM
GI50 [32]: 83.2 µM
TGI [32]: > 100 µM
GI50 [33]: > 100 µM
TGI [33]: > 100 µM
GI50 [34]: > 100 µM
TGI [34]: > 100 µM
GI50 [36]: 71.1 µM
TGI [36]: > 100 µM
GI50 [37]: 6.1 µM
TGI [37]: > 100 µM
GI50 [38]: 31.5 µM
TGI [38]: > 100 µM
GI50 [39]: 0.159 µM
TGI [39]: 0.458 µM
GI50 [40]: > 100 µM
TGI [40]: > 100 µM
GI50 [41]: > 100 µM
TGI [41]: > 100 µM
GI50 [42]: > 100 µM
TGI [42]: > 100 µM
GI50 [43]: > 100 µM
TGI [43]: > 100 µM
GI50 [44]: > 100 µM
TGI [44]: > 100 µM
GI50 [45]: > 100 µM
TGI [45]: > 100 µM
GI50 [47]: > 100 µM
TGI [47]: > 100 µM
GI50 [48]: > 100 µM
TGI [48]: > 100 µM
GI50 [49]: > 100 µM
TGI [49]: > 100 µM
GI50 [50]: 9.39 µM
TGI [50]: > 100 µM
GI50 [51]: 44.8 µM
TGI [51]: > 100 µM
GI50 [53]: > 100 µM
TGI [53]: > 100 µM
GI50 [54]: > 100 µM
TGI [54]: > 100 µM
GI50 [55]: > 100 µM
TGI [55]: > 100 µM
GI50 [56]: 16.9 µM
TGI [56]: 99.6 µM
GI50 [57]: 21 µM
TGI [57]: > 100 µM
GI50 [58]: 77.2 µM
TGI [58]: > 100 µM

Reference: PubChem BioAssay (NCI)
